Results taken from PubChem BioAssay (NCI).
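48-hour exposure; five concentrations; linearly interpolated endpoints. At the TGI there is no net growth.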

Columns and labels:
Experiment in all cases: growth of human tumour cells (NCI), 48 h
[1] = test system: KM12 colon
[2] = test system: SK-MEL-5 melanoma
[3] = test system: MDA-MB-435
[4] = test system: UACC-62 melanoma
[5] = test system: HOP-62 NSCLC
[6] = test system: MDA-MB-231 breast
[7] = test system: A549 NSCLC
[8] = test system: M14 melanoma
[9] = test system: UACC-257 melanoma
[10] = test system: OVCAR-4 ovarian
[11] = test system: CCRF-CEM leukemia
[12] = test system: SN12C renal
[13] = test system: LOX IMVI melanoma
[14] = test system: SW-620 colon
[15] = test system: SR leukemia
[16] = test system: SF-295 CNS
[17] = test system: HT29 colon
[18] = test system: SF-268 CNS
[19] = test system: NCI-H23 lung
[20] = test system: OVCAR-8 ovarian
[21] = test system: COLO 205 colon
[22] = test system: MCF7 breast
[23] = test system: RXF 393 renal
[24] = test system: T-47D breast
[25] = test system: RPMI-8226 leukemia
[26] = test system: HCT-15 colon
[27] = test system: HL-60(TB) leukemia
[28] = test system: SK-MEL-28 melanoma
[29] = test system: CAKI-1 renal
[30] = test system: MALME-3M melanoma
[31] = test system: DU-145 prostate
[32] = test system: PC-3 prostate
[33] = test system: MDA-N
[34] = test system: EKVX NSCLC
[35] = test system: SNB-75 CNS
[36] = test system: HCC-2998 colon
[37] = test system: K-562 leukemia
[38] = test system: SK-OV-3 ovarian
[39] = test system: TK-10 renal
[40] = test system: HOP-92 NSCLC
[41] = test system: IGROV1 ovarian
[42] = test system: 786-0 renal
[43] = test system: MOLT-4 leukemia
[44] = test system: OVCAR-5 ovarian
[45] = test system: OVCAR-3 ovarian
[46] = test system: NCI/ADR-RES ovarian
[47] = test system: U251 CNS
[48] = test system: SNB-19 CNS
[49] = test system: HS 578T breast
[50] = test system: HCT-116 colon
[51] = test system: NCI-H460 lung
[52] = test system: A498 renal
[53] = test system: ACHN renal
[54] = test system: UO-31 renal
[55] = test system: SF-539 CNS
[56] = test system: SK-MEL-2 melanoma
[57] = test system: NCI-H522 lung
[58] = test system: NCI-H226 lung

Measured: TGI

O=C(Nc1ccccn1)/C(=C\C(=O)c1ccc(Cl)cc1)Nc1ccccc1
not listed: [44] | [45] | [46] | [47] | [48] | [49] | [50] | [51] | [52] | [53] | [54] | [55] | [56] | [57] | [58]
> 10 µM: all other assays above

CC1CN=C(N(Cc2ccc(F)cc2)C(=O)Nc2ccc(Cl)cc2)S1 (configuration not stated)
91 µM: [27]
61.1 µM: [33]
69.2 µM: [34]
76.6 µM: [36]
54.5 µM: [13]
29.4 µM: [2]
64 µM: [22]
37.5 µM: [56]
67.4 µM: [52]
71.7 µM: [28]
65.8 µM: [17]
17.4 µM: [8]
not listed: [3] | [4] | [23] | [40] | [57] | [58]
> 100 µM: all other assays above

Nc1c(Br)cc2c(c1Br)Cc1cc(Br)ccc1-2
not listed: [4] | [5] | [25] | [27] | [29] | [30] | [34] | [41] | [42] | [44] | [55] | [56]
> 100 µM: all other assays above

O=C(CCC(C(=O)OCc1ccccc1)C(=O)OCc1ccccc1)Nc1ccc(OCc2ccccc2)cc1
32.8 µM: [22]
79.4 µM: [26]
27.3 µM: [50]
47.2 µM: [32]
34 µM: [20]
32.2 µM: [42]
not listed: [2] | [25] | [56]
> 100 µM: all other assays above

N#C/C(C(=O)Nc1ccccc1)=C(/N)N1CCCC1
not listed: [22] | [35]
> 100 µM: all other assays above
